Test results from US20070048367A1, “Herbal composition for treating morning sickness” (MOM Enterprises, Inc., priority 2005, published 2007).
Structures can show the parent of a compound that is named as a salt.

Test system: morning sickness
Assay: Doctor survey: composition compared with other morning sickness remedies tried during the same pregnancy
Format: in vivo, pregnant patients
Conditions: for Patients' preference, composition versus the named remedy: overall, in words
Source text: Doctors across the United States were each sent four bottles of the composition described herein, and were invited to allow their pregnant patients to try the composition as a remedy for morning sickness. The same doctors were also sent a survey inquiring about the patients'experience with the composition, the other remedies used, and how the composition disclosed herein compared with the other remedies.
The survey also asked about other known morning sickness remedies. […] Some of the other remedies included Reglan® (metochlopramide, commercially available from Robins Co., Richmond, Va.), Emetrol® (dextrose, levulose, phosphoric acid, commercially available from Pfizer, Inc., New York, N.Y.), Mylanta® (calcium carbonate, magnesium hydroxide, commercially available from Johnson & Johnson, Merck Consumer Pharmaceuticals Co., Fort Washington, Pa.), Premesis Rx® (calcium carbonate, vitamin B12, folic acid, vitamin B6, commercially available from KV Pharmaceutical Co., St. Louis, Mo.), Compazine® (prochlorperazine, commercially available from SmithKline Beecham, Philadelphia, Pa.), and meclizine (commercially available under the tradename Antivert® from Pfizer, Inc., New York, N.Y.).
Regardless of whether they tried one or more remedies besides the disclosed composition, each doctor was asked, for each patient: did the composition work 1) better than other products or combinations, 2) better than some, but not as well as others, or 3) not as well as other products or combinations.
Another question in the survey asked the doctors what products each patient took besides the composition, and then whether the composition worked 1) better than other products or combinations, 2) better than some, but not as well as others, or 3) not as well as other products or combinations.

[1] = composition versus the named remedy, the two taken alone or with other remedies
[2] = patients who tried only the named remedy or combination besides the composition
[3] = composition versus the named remedy, the two taken alone or with other remedies, hydrochloride

Compound	Percent of Patients for whom the Composition Did Not Work as Well [1] [%]	Percent of Patients for whom the Composition worked Better [1] [%]	Patients for whom the composition definitely worked better than the remedy/remedies tried in addition [2]	Patients' preference, composition versus the named remedy	other results
CN1CCN(CCCN2c3ccccc3Sc3ccc(Cl)cc32)CC1 [Compazine ®, prochlorperazine]	29	43	better for 3 patients	–	–
Cc1cccc(CN2CCN(C(c3ccccc3)c3ccc(Cl)cc3)CC2)c1 (stereo not drawn) [Meclizine ®, meclizine]	0	100	–	–	–
CC(CN1c2ccccc2Sc2ccccc21)N(C)C (stereo not drawn) [Phenergan ®, promethazine hydrochloride]	–	–	better for 4 patients	prefer	Percent of Patients for whom the Composition Did Not Work as Well [3]: 32%; Percent of Patients for whom the Composition worked Better [3]: 40%
CC(CN1c2ccccc2Sc2ccccc21)N(C)C (stereo not drawn) [Promethazine ®, Promethazine]	100	0	–	–	–
CCN(CC)CCNC(=O)c1cc(Cl)c(N)cc1OC [Reglan ®, metochlopramide]	60	0	–	–	–
Cc1ncc(CO)c(CO)c1O.Cl [Vitamin B6, pyridoxine hydrochloride]	–	–	–	like the composition better	Patients for whom the composition definitely worked better than the remedy/remedies tried in addition (in vivo): better for 7 patients; Percent of Patients for whom the Composition Did Not Work as Well (in vivo): 11%
Cc1nccn1CC1CCc2c(c3ccccc3n2C)C1=O (stereo not drawn) [Zofran ®, ondansetron hydrochloride]	–	36	better for 5 patients	prefer	Percent of Patients for whom the Composition Did Not Work as Well [3]: 42%; Percent of Patients for whom the Composition Did Not Work as Well (composition versus the named remedy, the two taken alone or with other remedies, listed as Zofran®, hydrochloride): at least 36%
